According to patent US11590110B2, “Compositions and methods for reactivating latent immunodeficiency virus using a GSK-3 inhibitor” (priority 2017, dated 2023):
Entries after “also recorded” stand apart in the source; their conditions may differ. Like-named read-outs stand apart in the source and are kept apart here.

Experiments:
tonsil CD4+ T cells = test: Example 6: cell viability in tonsil CD4+ T cell cultures, Cell-Titer Blue; conditions: SB216763 10-1,000 nM, PMA 200 nM, panobinostat 50 nM; 48 hours
[1] = system: latent HIV-1 in blood CD4+ T cells from infected individuals on suppressive ART; assay type: cell-based
CD4+ T cells [2] = test: Example 5: lactate production analysis; assay type: cell-based, human
Method: Subsequently, media of the treated samples were tested for production of L-lactated using a Glycolysis Cell-Based Assay Kit (Cayman Chemical). This test measures the quantity of formazan, an artificial chromogenic dye that results from the reduction of tetrazolium salts in the presence of NADH in the culture media. Colored formazan absorbs between 490 and 520 nm and can be detected by a plate reader. Since lactate dehydrogenase catalyzes the reaction between NAD+ and lactate, yielding pyruvate and NADH, which directly reduces the tetrazolium salt, the quantity of formazan produced is proportional to the quantity of L-lactate in the culture medium, and is thus an indirect measurement of glycolysis. In order to determine specific L-Lactate concentration, a standard curve was obtained analyzing absorbance of known concentration of L-lactate as indicated in the manufacturer's protocol.

[3] = system: patient-derived CD4+ T cells; conditions: as shown in PCT/US2016/64614; cited from earlier work
NK cells = test: Example 5: NK cell viability and cytotoxic effector functions; assay type: cell-based, human; conditions: 48 hours; 50 nM
Method: Density centrifugation using a Ficoll-Hypaqua gradient was performed to purify PBMCs from continuous-flow centrifugation leukapheresis product. Subsequently, cells were plated in 96-well U-bottom plated in complete RPMI, which was supplemented with 10 ng/ml recombinant IL-15 (R&D systems), treated with LRAs or vehicle controls (DMSO) and incubated at 37° C., 5% CO2 for 48 h. To assay NK cell functionality, cells were analyzed by flow cytometry. Briefly, 1×10^6 cells/200 ul were stained with FITC anti-CD107 antibodies (1:50, BD Biosciences), mixed with 1×10^5 K562 cells and incubated at 37° C., 5% CO2 for 1 h. Then, in order to enhance intracellular cytokine staining, protein transport was blocked with Brefeldin A (Sigma-Aldrich) and golgi stop (BD Biosciences) according to the manufacturer instructions and the cells were incubated at 37° C., 5% CO2 for another 5 h. Afterwards, cells were spun down (5 min, 330×g, RT), the supernatant was removed and the cells were stained using Zombie violet (1:50, Biolegend) according to the manufacturer protocol. Subsequently, cells were stained for surface proteins staining with the following antibodies: APC/Cy7 anti CD3 (1:100, Biolegend), APC anti CD14 (1:100, Biolegend), APC anti CD19 (1:100, Biolegend), PE/Cy7 anti CD56 (1:100, BD Biosciences), Alexa Fluor 700 anti CD16 (1:100, Biolegend), PE anti CD7 (1:50, Thermo Fisher Scientific) for 15 min at room temperature. Next, cells were permeabilized and fixed using the Foxp3/Transcription Factor Fixation/Permeabilization Concentrate and Diluent kit (eBioscience) and stained intracellularly with PerCP/Cy5 anti IFN-γ (1:50, BD Bioscience) in FOXP3 perm/wash buffer for 1 h at 4° C. Finally, cells were washed and fixed in 1% paraformaldehyde/PBS, and subjected to flow cytometry analysis on a LSRII (BD Biosciences). Data were obtained using FlowJo software (Treestar). Samples were gated for singlets, live, CD3 negative, CD14/CD19 negative and CD7 positive cells as previously described (York, Milush). CD16high/CD56dim, CD16dim/CD56high cells were considered for analysis of IFN-γ and CD107a positivity. All gates were defined, based on fluorescence minus one (FMO) samples.

CD8+ T cells = test: Example 5: CD8 T-cell viability and cytotoxic effector functions; assay type: cell-based, human; conditions: 48 hours; 50 nM
Method: After drug treatment, human PBMCs were cultured in complete RPMI in the presence of CD107a-BV650 (1:50, 328637, BioLegend) or CD107a-FITC antibodies (1:50, 555800, BD Bioscience) and PMA/ionomycin (50 ng/ml and 1 uM) dor 3.5 hours, adding Brefeldin A and Monensin (eBioscience) for the last hour. Cells were subsequently stained for viability using the viability dyes eFluor 506, (eBioscience) according to the provided protocol. After surface marker staining with the following antibodies (all at 1:100 dilution): CD3-APC-H7 (560176; BD Biosciences), CD8-V450 (560347; BD Biosciences), CD45RA-APC (17-0458; eBioscience), and CCR7-PE-Cy7 (557648; BD Biosciences), cells were permeabilized and fixed using the Foxp3/Transcription Factor Fixation/Permeabilization Concentrate and Diluent kit (eBioscience). Intracellular staining was performed with IFN-γ-PerCP-Cy5.5 antibody (1:100, 560704, BD Bioscience) in FOXP3 perm/wash buffer for 1 h at 4° C. After washing and fixation of the cells in 1% paraformaldehyde/PBS, cells were analyzed by flow cytometry. Final data stems from having gated on CD8hi- and CD8lo-expressing T cells.

CD4+ T cells [4] = test: Example 5: CD4+ T cell viability, Cell Titer Blue assay; assay type: cell-based, human; conditions: 48 hours; for CD4+ T-cell viability: SB-216763 and tideglusib 10/100/1000 nM, bryostatin-1 10 nM
Method: 25 μl from each well/treatment were incubated with Cell Titer Blue reagent (Promega) for 3 to 4 hours at 37° C. The assay is based on the ability of living cells to convert a redox dye (resazurin) into a fluorescent end product (resorufin). Colorimetric analysis of treated cells was done with a Perkin Elmer EnSpire 2300 Multimode plate reader set to detect fluorescence (Ex:579 nm/Em:584 nm).

CD4+ T cells [5] = test: Example 5: GLUT1 surface expression, flow cytometry; assay type: cell-based, human; conditions: 2 or 24 hours; 1 μM tideglusib; CD4+ T cells of three HIV-negative donors
Method: (§1) Freshly isolated PBMCs or CD4^+ T cells were stained for viability, using the fixable viability dye Zombie violet (1:50, Biolegend) according to the manufacturer's recommendation. Surface staining was performed with the following antibodies at 1:100 dilutions: CD3-PE-Cy7, CD4-APC-Cy7, CD69-FITC, CD25-PE (all 1:100, Biolegend), and Glut-1-Ax647 (BD Bioscience, 566580) in staining buffer for 20 min on ice and cells were fixed in 1% PFA-containing PBS. All flow analysis was performed on the LSRII (BD Biosciences) using FlowJo software (v.10.4.2). Color compensations were performed using single-stained samples for each of the fluorochromes used. Data were analyzed using FlowJo software (TreeStar, San Carlos, Calif.).
Changes to the metabolism of resting CD4^+ T-cells by tideglusib were studied. […] […].

NF-κB (p65) = test: Example 5: NF-κB p65 nuclear translocation, western blot of nuclear extracts; assay type: cell-based, human; conditions: 250 nM inhibitor with 1 μM tideglusib
GSK-3 = conditions: cited from earlier work
CD4+ T cells [6] = test: Example 5: cytokines release assay (V-PLEX pro-inflammatory panel); assay type: cell-based, human; conditions: 48 hours; culture supernatant of CD4+ T cells
Method: Supernatant was collected from the treated cell cultures described above and stored at −80° C. for later analysis. Supernatant cytokine levels were determined using a V-PLEX Proinflammatory Panel 1 (human) Kit (#K15049D-1) and a V-PLEX IL-17A Gen. B (human) (#K151WMD) from Meso Scale Discovery, following the manufacturer's protocol. The assay was done on undiluted supernatant samples in order to increase the sensitivity of the assay.

CD4+ T cells [7] = test: Example 5: surface expression of activation markers CD69 and CD25, flow cytometry; assay type: cell-based, human; conditions: 48 hours
Method: as §1

patient CD4+ T cells = conditions: human, 48 h
[8] = system: latent HIV in CD4+ T cells of HIV-infected patients on suppressive anti-retroviral therapy; test: Example 7: reversal of HIV latency in patient CD4+ T cells, extracellular viral RNA by digital droplet PCR
[9] = system: latent HIV-GFP reporter virus in resting CD4+ T cells from human tonsil; test: Example 6: lymphoid tissue model of HIV latency, HIV-GFP reporter, flow cytometry; assay type: cell-based; conditions: 48 hours; for latency reversal by first-generation LRAs: bryostatin-1 10 nM, JQ1 100 nM, panobinostat 50 nM
[10] = system: patient-derived CD4+ T cells; conditions: as shown in PCT/US2016/64614; cited from earlier work; remark: listed apart in the source
[11] = 10 nM, 48 hours, relative to untreated control

CCCCCCCCCCCCCC(=O)O[C@@H]1[C@@H](C)[C@@]2(O)[C@@H](C=C(CO)C[C@]3(O)C(=O)C(C)=C[C@@H]23)[C@@H]2C(C)(C)[C@]12OC(C)=O [PMA, phorbol 12-myristic13-acetate]
cell viability relative to untreated cells (tonsil CD4+ T cells): clear toxicity; also recorded: toxicity was observed

CCOC(=O)C1=C(N)Oc2ccc(Cl)cc2C1C(C#N)C(=O)OCC (stereo not drawn) [SC79, 2-amino-6-chloro-α-cyano-3-(ethoxycarbonyl)-4H-1-benzopyran-4-acetic acid ethyl ester]
release of virions in the culture supernatant ([1]; 48 hours, CD4+ T cells from five HIV-positive participants, SC79 10/100/1000 nM): increased release of virions

O=CC[C@@H](O)[C@H](O)[C@H](O)CO [2-DG, 2-deoxy-D-glucose]
L-lactate production in treated and untreated samples (CD4+ T cells [2]; 50 mM, 24 hours): dramatically reduced L-lactate production

Cc1[nH]c2ccccc2c1CCNCc1ccc(/C=C/C(=O)NO)cc1 [panobinostat]
toxicity of known latency-reversing agent [3]: highly toxic | reduction of total NK cells (NK cells): approximately 60% | reduction of total CD8+ T cells (CD8+ T cells): approximately 40% | cell death of CD4+ T cells (CD4+ T cells [4]; 50 nM): ~50%

CC(C)n1nc(-c2cc3cc(O)ccc3[nH]2)c2c(N)ncnc21 [PP242]
GLUT1 surface expression over the untreated control (CD4+ T cells [5]): did not significantly alter expression of GLUT1 | effect of co-treatment on tideglusib-mediated p65 nuclear translocation (NF-κB (p65)): less reduction in nuclear translocation

Cn1cc(C2=C(c3ccc(Cl)cc3Cl)C(=O)NC2=O)c2ccccc21 [SB-216763, 3-(2,4-Dichlorophenyl)-4-(1-methyl-1H-indol-3-yl)-1H-pyrrole-2,5-dione]
IC50 (GSK-3): […] | virus-associated HIV-1 mRNA, mean fold-change [1]: […] | production and release of pro-inflammatory cytokines (CD4+ T cells [6]): does not induce T cell activation or cytokine production | L-lactate in the culture media (CD4+ T cells [2]; 24 hours of treatment): did not result in an increase of L-lactate | surface expression of the activation markers CD69 or CD25 (CD4+ T cells [7]): no increase | toxicity based on cell-titer blue testing (patient CD4+ T cells): Neither tideglusib nor SB216763 induced toxicity | CD4+ T-cell viability (CD4+ T cells [4]): does not reduce viability | latency reversing activity, in words ([8]; at equivalent doses): comparable activity | subjects that did not respond ([8]; highest dose): 3 of 14 | induction of the GFP reporter over unstimulated ([9]; doses between 100-1000 nM): 90 fold

CCC/C=C/C=C/C(=O)O[C@H]1/C(=C/C(=O)OC)C[C@H]2C[C@H]([C@@H](C)O)OC(=O)C[C@H](O)C[C@@H]3C[C@H](OC(C)=O)C(C)(C)[C@](O)(C[C@@H]4C/C(=C/C(=O)OC)C[C@H](/C=C/C(C)(C)[C@]1(O)O2)O4)O3 [bryostatin-1]
virus-associated HIV-1 mRNA, mean fold-change [1, 11]: 574.4 fold | virus-associated HIV-1 mRNA, median value [1, 11]: 5.086 fold | production and release of pro-inflammatory cytokines (CD4+ T cells [6]): release of IFN-γ, IL-6, IL-13 | CD69 surface expression (CD4+ T cells [7]; 10 nM): markedly increased | activation marker expression with known latency-reversing agent [10]: increase in activation marker expression | CD4+ T-cell viability (CD4+ T cells [4]): minimal decrease | latency reversal by first-generation LRAs [9]: only minimal latency reversal

Cc1sc2c(c1C)C(c1ccc(Cl)cc1)=N[C@@H](CC(=O)OC(C)(C)C)c1nnc(C)n1-2 [JQ-1]
latency reversal by first-generation LRAs [9]: only minimal latency reversal
